Experiments:
Sclerotinia sclerotiorum = Sclerotinia sclerotiorum / liquid culture (cottony rot); assay type: cell-based; settings: growth inhibition photometrically 3-4 days after application, read-out: control of Sclerotinia sclerotiorum
Outline: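 Mycelial fragments from fresh liquid culture in potato dextrose broth added to test compound in DMSO. Incubation at 24° C; growth inhibition read photometrically 3-4 days after application.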

Fusarium culmorum [1] = test: microbe, parasite or virus in culture; assay type: cell-based; settings: read-out: control of Fusarium culmorum
[2] = system: Botryotinia fuckeliana (Botrytis cinerea); test: Botryotinia fuckeliana (Botrytis cinerea) / liquid culture (gray mould); assay type: cell-based; settings: growth inhibition photometrically 3-4 days after application, read-out: control of Botryotinia fuckeliana
Outline: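 Conidia suspended in Vogels broth and added to compound dispensed from DMSO. Incubated at 24°C, with growth inhibition measured photometrically 3–4 days later.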

[3] = system: Gibberella zeae (Fusarium graminearum); test: whole plant or invertebrate; assay type: in vivo; settings: in Triticum aestivum, read-out: control of Gibberella zeae
[4] = system: Magnaporthe grisea (Pyricularia Oryzae); test: whole plant or invertebrate; assay type: in vivo; settings: foliar, read-out: control of Magnaporthe grisea
[5] = system: Monographella nivalis (Microdochium nivale); test: Monographella nivalis (Microdochium nivale) / liquid culture (foot rot cereals); assay type: cell-based; settings: growth inhibition photometrically 4-5 days after application, read-out: control of Monographella nivalis
Outline: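 Fungal conidia mixed directly into potato dextrose broth and added to test compound delivered in DMSO. Incubated at 24° C; growth inhibition read photometrically 4-5 days after application.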

[6] = system: Phaeosphaeria nodorum (Septoria nodorum); test: Phaeosphaeria nodorum (Septoria nodorum) / wheat / leaf disc preventative (glume blotch); assay type: in vivo; settings: Parastagonospora nodorum, foliar, wheat leaf segments, inoculated 2 days after application
Outline: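 Wheat cv. Kanzler leaf segments on agar sprayed preventatively with formulated compound diluted in water, then inoculated with spore suspension 2 days after application. Incubated at 20° C, 75% rh, 12 h light/12 h dark; percent disease control versus untreated scored 5-7 days after application.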

[7] = system: Mycosphaerella arachidis (Cercospora arachidicola); test: Mycosphaerella arachidis (Cercospora arachidicola) / liquid culture (early leaf spot); assay type: cell-based; settings: growth inhibition photometrically 4-5 days after application, read-out: control of Mycosphaerella arachidis
Outline: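 Spores taken straight from cryostorage are suspended in potato dextrose broth and added to test compound in DMSO. Plates are incubated at 24° C. Growth inhibition is scored photometrically 4-5 days after application.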

[8] = system: Mycosphaerella graminicola (Septoria tritici); test: Mycosphaerella graminicola (Septoria tritici) / liquid culture (Septoria blotch); assay type: cell-based; settings: Zymoseptoria tritici, growth inhibition photometrically 4-5 days after application, read-out: control of Mycosphaerella graminicola
Outline: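 Conidia suspended in potato dextrose broth and added to test compound supplied in DMSO in 96-well plates. Incubated at 24 °C, and growth inhibition read photometrically 4-5 days after application.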

Pyrenophora teres = Pyrenophora teres / barley / leaf disc preventative (net blotch); assay type: in vivo; settings: foliar, barley leaf segments, inoculated 2 days after application
Outline: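 Barley cv. Hasso leaf segments on agar sprayed with formulated compound, inoculated with spores 2 days later. Incubated at 20 °C, 65% rh, 12 h light/dark; disease control versus untreated assessed 5–7 days after application.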

Fusarium culmorum [9] = test: whole plant or invertebrate; assay type: in vivo; settings: in Triticum aestivum, read-out: control of Fusarium culmorum
[10] = system: Blumeria graminis f. sp. tritici (Erysiphe graminis f. sp. tritici); test: Blumeria graminis f. sp. tritici / wheat / leaf disc preventative (powdery mildew on wheat); assay type: in vivo; settings: foliar, wheat leaf segments, inoculated 1 day after application
Outline: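 Wheat cv. Kanzler leaf segments on agar sprayed with formulated compound in water, inoculated 1 day later by shaking mildew-infected plants overhead. Incubated at 20° C, 60% rh, 24 h dark then 12 h light/12 h dark. Percent disease control versus untreated scored 6-8 days after application.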

Alternaria solani = Alternaria solani / tomato / leaf disc (early blight); assay type: in vivo; settings: foliar, tomato leaf disks, sprayed 2 days before inoculation, compared to untreated control
Method: Example B1: Alternaria solani/Tomato/Leaf Disc (Early Blight) Tomato leaf disks cv. Baby are placed on agar in multiwell plates (24-well format) and sprayed with the formulated test compound diluted in water. The leaf disks are inoculated with a spore suspension of the fungus 2 days after application. The inoculated leaf disks are incubated at 23° C./21° C.

[11] = system: Glomerella lagenarium (Colletotrichum lagenarium); test: Glomerella lagenarium (Colletotrichum lagenarium) / liquid culture (anthracnose); assay type: cell-based; settings: Colletotrichum orbiculare, growth inhibition photometrically 3-4 days after application, read-out: control of Glomerella lagenarium
Outline: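 Cryo-stored conidia in potato dextrose broth were added to test compound in DMSO. Plates were incubated at 24° C, and growth inhibition was read photometrically 3-4 days after application.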

Structure (SMILES)	inhibition of growth at 20 ppm (Sclerotinia sclerotiorum) [%]	inhibition of growth at 20 ppm (Fusarium culmorum [1]) [%]	inhibition of growth at 20 ppm [2] [%]	pest or weed control at 200 ppm [3] [%]	pest or weed control at 200 ppm [4] [%]	inhibition of growth at 20 ppm [5] [%]	pest or weed control at 200 ppm [6] [%]	melting point [°C]	inhibition of growth at 20 ppm [7] [%]	inhibition of growth at 20 ppm [8] [%]	pest or weed control at 200 ppm (Pyrenophora teres) [%]	pest or weed control at 200 ppm (Fusarium culmorum [9]) [%]	pest or weed control at 200 ppm [10] [%]	pest or weed control at 200 ppm (Alternaria solani) [%]	inhibition of growth at 20 ppm [11] [%]
Cn1cc(C(C)(CNC(=O)c2cc(-c3ccc(F)cc3F)no2)c2cccc(Cl)n2)cn1 (stereo not shown) [Compound P-42, N-[2-(6-chloro-2-pyridyl)-2-(1-methylpyrazol-4-yl)propyl]-3-(2,4-difluorophenyl) isoxazole-5-carboxamide]	≥ 80	≥ 80	≥ 80	≥ 80	≥ 80	≥ 80	≥ 80	126 to 128	≥ 80	≥ 80	≥ 80	≥ 80	–	–	–
CC(C)Nc1cccc(C(C)(CNC(=O)c2cc(-c3ccc(F)cc3F)on2)c2cnn(C)c2)n1 (stereo not shown) [Compound P-103, 5-(2,4-difluorophenyl)-N-[2-[6-(isopropylamino)-2-pyridyl]-2-(1-methylpyrazol-4-yl)propyl]isoxazole-3-carboxamide]	–	–	–	–	≥ 80	≥ 80	–	–	–	≥ 80	–	–	–	–	–
Cn1ncc(C(C)(CNC(=O)c2cc(-c3ccc(F)cc3F)on2)c2cccc(Cl)n2)c1Cl (stereo not shown) [Compound P-26, N-[2-(5-chloro-1-methyl-pyrazol-4-yl)-2-(6-chloro-2-pyridyl)propyl]-5-(2,4-difluorophenyl) isoxazole-3-carboxamide]	≥ 80	≥ 80	≥ 80	≥ 80	≥ 80	≥ 80	≥ 80	–	≥ 80	≥ 80	≥ 80	–	≥ 80	≥ 80	≥ 80
COC(=O)c1cccc(C(C)(CNC(=O)c2cc(-c3ccc(F)cc3F)on2)c2cnn(C)c2)n1 (stereo not shown) [Compound P-39, methyl 6-[2-[5-(2,4-difluorophenyl)isoxazole-3-carbonyl]amino]-1-methyl-1-(1-methylpyrazol-4-yl)ethyl]pyridine-2-carboxylate]	–	–	≥ 80	–	≥ 80	≥ 80	≥ 80	–	–	≥ 80	–	–	–	–	≥ 80
COc1cc(Cl)nc(C(C)(CNC(=O)c2cc(-c3ccc(F)cc3F)on2)c2cnn(C)c2)c1 (stereo not shown) [Compound P-36, N-[2-(6-chloro-4-methoxy-2-pyridyl)-2-(1-methylpyrazol-4-yl)propyl]-5-(2,4-difluorophenyl) isoxazole-3-carboxamide]	–	≥ 80	≥ 80	≥ 80	–	≥ 80	–	157 to 159	≥ 80	≥ 80	≥ 80	≥ 80	≥ 80	–	≥ 80
Cc1ccc(C(C)(CNC(=O)c2cc(-c3ccc(F)cc3F)on2)c2cnn(C)c2)nc1Br (stereo not shown) [Compound P-110, N-[2-(6-bromo-5-methyl-2-pyridyl)-2-(1-methylpyrazol-4-yl)propyl]-5-(2,4-difluorophenyl) isoxazole-3-carboxamide]	≥ 80	≥ 80	≥ 80	–	≥ 80	≥ 80	≥ 80	–	≥ 80	≥ 80	≥ 80	–	≥ 80	≥ 80	≥ 80
CO/N=C(\C)c1cccc(C(C)(CNC(=O)c2cc(-c3ccc(F)cc3F)on2)c2cnn(C)c2)n1 (stereo not shown) [Compound P-49, 5-(2,4-difluorophenyl)-N-[2-[6-[(E)-N-methoxy-C-methyl-carbonimidoyl]-2-pyridyl]-2-(1-methylpyrazol-4-lyl)propyl]isoxazole-3-carboxamide]	≥ 80	≥ 80	≥ 80	–	≥ 80	≥ 80	≥ 80	–	≥ 80	≥ 80	≥ 80	≥ 80	≥ 80	≥ 80	≥ 80
Cn1cc(C(C)(CNC(=O)c2cc(-c3ccc(F)cc3F)on2)c2cccc(Cl)n2)cn1 (stereo not shown) [Compound P-10, N-[2-(6-chloro-2-pyridyl)-2-(1-methylpyrazol-4-yl)propyl]-5-(2,4-difluorophenyl)isoxazole-3-carboxamide]	≥ 80	≥ 80	≥ 80	–	≥ 80	≥ 80	≥ 80	–	≥ 80	≥ 80	≥ 80	≥ 80	≥ 80	≥ 80	≥ 80
Cn1cc(C(C)(CNC(=O)c2cc(-c3ccc(F)cc3F)on2)c2cccc(C#N)n2)cn1 (stereo not shown) [Compound P-15, N-[2-(6-cyano-2-pyridyl)-2-(1-methylpyrazol-4-yl)propyl]-5-(2,4-difluorophenyl) isoxazole-3-carboxamide]	–	≥ 80	≥ 80	–	≥ 80	≥ 80	≥ 80	–	≥ 80	≥ 80	≥ 80	–	≥ 80	≥ 80	≥ 80
Cn1cc(C(CNC(=O)c2cc(-c3ccc(F)cc3F)on2)c2cnccn2)cn1 (stereo not shown) [Compound P-8, 5-(2,4-difluorophenyl)-N-[2-(1-methylpyrazol-4-yl)-2-pyrazin-2-yl-ethyl]isoxazole-3-carboxamide]	–	–	–	–	≥ 80	–	–	–	–	–	≥ 80	–	≥ 80	–	–

Source: patent publication US20240343717A1, “MICROBIOCIDAL PYRAZOLE DERIVATIVES” (SYNGENTA CROP PROTECTION AG, priority 2021, published 2024)
